Settings in all cases: 24 h
The test system of assay [1] is U2OS. As to the kind of experiment: nuclei count in HPG assay relative to DMSO (% of DMSO); higher = more viable cells. As to the method: (§1)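 Validation screen in U2OS cells: hits tested at 1, 3 and 10 uM for 24 h in duplicate plates. Translation was read by OPP incorporation (1 h pulse) and HPG incorporation (30 min in methionine-free medium), quantified by high-throughput microscopy alongside nuclei counts. All values are normalised to DMSO (= 100).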

Assay [2] relates to U2OS. As to the kind of experiment: nuclei count in OPP assay relative to DMSO (% of DMSO); higher = more viable cells. As to the method: as §1
The subject of assay [3] is U2OS. As to the kind of experiment: mean HPG incorporation (global translation) relative to DMSO (% of DMSO); higher = more protein synthesis. As to the method: as §1
Assay [4] deals with U2OS. As to the kind of experiment: mean OPP incorporation (global translation) relative to DMSO (% of DMSO); higher = more protein synthesis. As to the method: as §1

Molecules are shown by their SMILES. Counter-ions that a name gives are not always drawn.

For `CCC(=O)CCCCC[C@@H]1NC(=O)[C@H]2CCCCN2C(=O)[C@H]([C@@H](C)CC)NC(=O)[C@H](Cc2cn(OC)c3ccccc23)NC1=O` [Apicidin], the “nuclei count in HPG assay” value in assay [1] (1 µM) amounted to 108; in assay [1] (3 µM) it was 96.3; in assay [1] (10 µM), 88. The “nuclei count in OPP assay” value in assay [2] (1 µM) was found to be 106; in assay [2] (3 µM) it was 95.4; in assay [2] (10 µM), 91.7. The “mean HPG incorporation” value in assay [3] (1 µM) was found to be 132; in assay [3] (3 µM), 135; in assay [3] (10 µM), 85. For the same molecule, the results for the “mean OPP incorporation” value in assay [4] (1 µM), in assay [4] (3 µM) and in assay [4] (10 µM) were 92.2, 83.9 and 55.8, respectively.
For the molecule `COc1ccccc1N1CCN(CCN2C(=O)c3ccccc3C(C)(C)C2=O)CC1` [ARC 239 dihydrochloride], the “nuclei count in HPG assay” value in assay [1] (1 µM) worked out at 106; in assay [1] (3 µM), 101; in assay [1] (10 µM), 98.3. Besides, the “nuclei count in OPP assay” value in assay [2] (1 µM) stood at 98.8; in assay [2] (3 µM) it was 101; in assay [2] (10 µM) it was 100. Besides, the results for the “mean HPG incorporation” value in assay [3] (1 µM), in assay [3] (3 µM) and in assay [3] (10 µM) were 102, 116 and 122, respectively. In addition, the “mean OPP incorporation” value is 100 in assay [4] (1 µM), 117 in assay [4] (3 µM) and 120 in assay [4] (10 µM).
Take `C[C@]12CC[C@@H]3c4ccc(O)cc4C[C@@H](CCCCCCCCC[S+]([O-])CCCC(F)(F)C(F)(F)F)[C@H]3[C@@H]1CC[C@@H]2O` (some centres undefined) [Fulvestrant]: the “nuclei count in HPG assay” value in assay [1] (1 µM) worked out at 97; in assay [1] (3 µM), 101; in assay [1] (10 µM), 89.1. In addition, the “nuclei count in OPP assay” value amounted to 98.7 in assay [2] (1 µM), 96.4 in assay [2] (3 µM) and 93.8 in assay [2] (10 µM). Further, the entries for the “mean HPG incorporation” value in assay [3] (1 µM), in assay [3] (3 µM) and in assay [3] (10 µM) were 118, 125 and 115, respectively. Moreover, the “mean OPP incorporation” value in assay [4] (1 µM) stood at 115; in assay [4] (3 µM) it was 123; in assay [4] (10 µM), 115.
For `N#CC(c1ccnc(NCCc2cccnc2)n1)c1nc2ccccc2s1` (centres undefined) [JNK Inhibitor V], the “nuclei count in HPG assay” value is 105 in assay [1] (1 µM), 93.9 in assay [1] (3 µM) and 77 in assay [1] (10 µM). In addition, the “nuclei count in OPP assay” value in assay [2] (1 µM) was 104; in assay [2] (3 µM) it was 94.1; in assay [2] (10 µM), 79.9. The entries for the “mean HPG incorporation” value in assay [3] (1 µM), in assay [3] (3 µM) and in assay [3] (10 µM) were 122, 133 and 85.5, respectively. The “mean OPP incorporation” value came to 122 in assay [4] (1 µM), 127 in assay [4] (3 µM) and 110 in assay [4] (10 µM).
For the molecule `O=C(Nc1ccc(OC(F)(F)F)cc1)c1sccc1NCc1ccnc2ccccc12` [OSI-930], the “nuclei count in HPG assay” value was determined as 96.9 in assay [1] (1 µM), 98.1 in assay [1] (3 µM) and 92 in assay [1] (10 µM). The “nuclei count in OPP assay” value in assay [2] (1 µM) came out at 98; in assay [2] (3 µM) it was 89.7; in assay [2] (10 µM) it was 91.2. In addition, the “mean HPG incorporation” value turned out to be 93.9 in assay [3] (1 µM), 92.7 in assay [3] (3 µM) and 64.2 in assay [3] (10 µM). Moreover, the figures for the “mean OPP incorporation” value in assay [4] (1 µM), in assay [4] (3 µM) and in assay [4] (10 µM) were 99.3, 101 and 114, respectively.
On to `CC(C)n1nc(-c2ccc3oc(N)nc3c2)c2c(N)ncnc21` [INK 128 (MLN0128)], for which the “nuclei count in HPG assay” value stood at 76 in assay [1] (1 µM), 80.6 in assay [1] (3 µM) and 72.8 in assay [1] (10 µM). Also, the figures for the “nuclei count in OPP assay” value in assay [2] (1 µM), in assay [2] (3 µM) and in assay [2] (10 µM) were 79.2, 68.8 and 69.8, respectively. The entries for the “mean HPG incorporation” value in assay [3] (1 µM), in assay [3] (3 µM) and in assay [3] (10 µM) were 32.9, 29.4 and 28.2, respectively. The figures for the “mean OPP incorporation” value in assay [4] (1 µM), in assay [4] (3 µM) and in assay [4] (10 µM) were 28.2, 29.2 and 30, respectively.
Consider `CCOc1cc(C(=O)Nc2ccc(Cl)c(-c3nc4ccccc4[nH]3)c2)cc(OCC)c1OCC` [SANT-2], for which the “nuclei count in HPG assay” value amounted to 102 in assay [1] (1 µM), 105 in assay [1] (3 µM) and 97.5 in assay [1] (10 µM). Moreover, the entries for the “nuclei count in OPP assay” value in assay [2] (1 µM), in assay [2] (3 µM) and in assay [2] (10 µM) were 102, 109 and 104, respectively. In addition, the “mean HPG incorporation” value in assay [3] (1 µM) turned out to be 97.5; in assay [3] (3 µM), 92.7; in assay [3] (10 µM) it was 74.1. The “mean OPP incorporation” value in assay [4] (1 µM) was found to be 117; in assay [4] (3 µM), 114; in assay [4] (10 µM) it was 121.

The values are drawn from the supplement of paper PMC8183993.
